Data reported in article PMC7686313, “Phase 1 study of mTORC1/2 inhibitor sapanisertib (TAK-228) in advanced solid tumours, with an expansion phase in renal, endometrial or bladder cancer” (British Journal of Cancer, 2020).
Where two headings read alike, the source gives them in different places.

Assays:
endometrial cancer = test: Tumour response according to RECIST v1.1, expansion phase, endometrial cancer; type: in vivo, human; conditions: expansion Endometrial cancer (n = 18)
From the text: (§1) Patients could be considered for enrolment in one of three disease-specific cohorts: (1) advanced or recurrent endometrial adenocarcinoma with disease progression following ≥1 prior chemotherapy regimen; (2) advanced/metastatic urothelial cancer (carcinoma of the bladder, ureter and/or renal pelvis), progressive after ≥1 prior therapy in the metastatic/unresectable setting; (3) advanced RCC after failure of ≥1 prior antivascular endothelial growth factor therapy with no prior TORC1 inhibitor therapy, or progressed on treatment with TORC1 inhibitor therapy.

[1] = Dose escalation: dose-limiting toxicities and maximum tolerated dose; type: in vivo
From the text: This Phase 1, open-label, dose-escalation and expansion study aimed to determine the safety, tolerability and preliminary efficacy of sapanisertib in patients with advanced solid tumours. During dose-escalation, patients received one of four sapanisertib dosing schedules: once daily (QD), once weekly (QW; days 1, 8, 15 and 22), QD for 3 days on/4 days off each week (QD × 3dQW; days 1–3, 8–10, 15–17 and 22–24) and QD for 5 days on/2 days off each week (QD × 5dQW; days 1–5, 8–12, 15–19 and 22–26) in a 28-day cycle with dose escalation based on a modified Fibonacci schema.
The maximum tolerated dose (MTD) was to be determined in the QD schedule before enrolment of initial single-patient cohorts for the QW and QDx3d QW schedules. […] Subsequent dose cohorts for that schedule included 3–6 patients. […] Once the MTD was identified for each of the dosing schedules, an additional six patients were enrolled to obtain further PK and safety data prior to expansion.

bladder cancer = test: Tumour response according to RECIST v1.1, expansion phase, bladder cancer; type: in vivo, human; conditions: expansion Bladder cancer (n = 13)
From the text: as §1

[2] = test system: refractory clear-cell RCC; design: method as in earlier work; conditions: single-agent 30 mg QW; cited from earlier work
[3] = design: method as in PMID 26800393; conditions: advanced haematological malignancies, cited from earlier work
[4] = test system: renal cell carcinoma (RCC); test: Tumour response according to RECIST v1.1, expansion phase, RCC; type: in vivo, human
From the text: as §1

[5] = expansion RCC TORC1 failure (n = 23)
[6] = expansion RCC TORC1 naïve (n = 18)

## CC(C)n1nc(-c2ccc3oc(N)nc3c2)c2c(N)ncnc21 [Sapanisertib]
Endometrial cancer
  Best overall response CR: 0 n (%)
  Best overall response PD: 8 (44) n (%)
  Best overall response PR: 1 (6) n (%)
  Best overall response SD < 6 months: 8 (44) n (%)
  Best overall response SD ≥ 6 months: 0 n (%)
  CBR (CR + PR + SD ≥ 6 months): 1 (6) n (%)
  ORR (CR + PR): 1 (6) n (%)
[1]; QD
  Recommended Phase 2 dose: 5 mg
[1]; QD 4 mg
  DLTs: Grade 3 hyperglycaemia
[1]; QD 6 mg
  DLTs: Grade 3 maculo-papular rash; grade 3 diarrhoea; grade 3 asthenia; grade 5 ventricular fibrillation/cardiac arrest
[1]; QD 7 mg
  DLTs: Grade 3 hyperglycaemia and grade 4 anaemia; grade 3 maculo-papular rash
[1]; QD schedule
  Maximum tolerated dose (MTD): 6 mg
[1]; QD × 3dQW 9 mg
  DLTs: Grade 3 hypophosphatemia
[1]; QD × 3dQW 12 mg
  DLTs: Grade 3 stomatitis and grade 3 dehydration; grade 3 asthenia
[1]; QD × 3dQW 16 mg
  DLTs: Grade 3 stomatitis
[1]; QD × 3dQW 20 mg
  DLTs: Grade 3 stomatitis; grade 3 stomatitis
[1]; QD × 3dQW schedule
  Maximum tolerated dose (MTD): 9 mg
[1]; QD × 5dQW 13 mg
  DLTs: Grade 3 fatigue; grade 3 asthenia; grade 3 stomatitis
[1]; QD × 5dQW schedule
  Maximum tolerated dose (MTD): 7 mg
[1]; QW
  Recommended Phase 2 dose: 30 mg
[1]; QW 40 mg
  DLTs: Grade 3 dry mouth and fatigue; grade 3 asthenia
[1]; QW schedule
  Maximum tolerated dose (MTD): 40 mg
Bladder cancer
  Best overall response CR: 0 n (%)
  Best overall response PD: 8 (62) n (%)
  Best overall response PR: 0 n (%)
  Best overall response SD < 6 months: 4 (31) n (%)
  Best overall response SD ≥ 6 months: 1 (8) n (%)
  CBR (CR + PR + SD ≥ 6 months): 1 (8) n (%)
  ORR (CR + PR): 0 n (%)
[2]
  Responses: no responses
[3]; QD dosing
  MTD: 4 mg
[3]; QD × 3dQW
  MTD: 9 mg
[4]; [5]
  Best overall response CR: 0 n (%)
  Best overall response PD: 7 (30) n (%)
  Best overall response PR: 2 (9) n (%)
  Best overall response SD < 6 months: 9 (39) n (%)
  Best overall response SD ≥ 6 months: 5 (22) n (%)
  CBR (CR + PR + SD ≥ 6 months): 7 (30) n (%)
  ORR (CR + PR): 2 (9) n (%)
[4]; [6]
  Best overall response CR: 1 (6) n (%)
  Best overall response PD: 5 (28) n (%)
  Best overall response PR: 3 (17) n (%)
  Best overall response SD < 6 months: 7 (39) n (%)
  Best overall response SD ≥ 6 months: 1 (6) n (%)
  CBR (CR + PR + SD ≥ 6 months): 5 (28) n (%)
  ORR (CR + PR): 4 (22) n (%)
[4]; expansion phase
  Objective responses persisting for > 16 months: Four of the seven
[4]; expansion, one patient with TORC1 inhibitor−naïve RCC receiving 40 mg QW
  Duration of complete response (CR): 16 months
